Experimental data published in patent publication US20250235543A1, “MODIFIED PROTEINS AND PROTEIN DEGRADERS” (Cullgen (Shanghai), Inc., priority 2021, published 2025).
Like-named read-outs stand apart in the source and are kept apart here.

How the values were obtained:
cyclin D1 = test: Cyclin D1 percentage degradation in Calu-1 cells (immunoblotting); format: cell-based; conditions: 16 hours
In short: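 Cyclin D1 degradation was assessed by western blot. Clarified lysates, obtained by RIPA lysis with inhibitors and centrifugation at 13,000 rpm, were normalized by BCA protein assay and separated by SDS-PAGE. Bands were detected with Western ECL Substrate on a Bio-Rad ChemiDoc MP Imaging system and quantified in Image Lab software to derive percentage degradation.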

CDK4 = target: T1, CDK4 (Homo sapiens, UniProt P11802); test: CDK4 percentage degradation in Calu-1 cells (immunoblotting); format: cell-based; conditions: for inhibition at 0.2 µM: read-out: CDK4 Degradation (200 nM)
T1 construct: endogenous in cells; host or cells: Calu-1
T1 sequence (P11802 2-303 limits assumed): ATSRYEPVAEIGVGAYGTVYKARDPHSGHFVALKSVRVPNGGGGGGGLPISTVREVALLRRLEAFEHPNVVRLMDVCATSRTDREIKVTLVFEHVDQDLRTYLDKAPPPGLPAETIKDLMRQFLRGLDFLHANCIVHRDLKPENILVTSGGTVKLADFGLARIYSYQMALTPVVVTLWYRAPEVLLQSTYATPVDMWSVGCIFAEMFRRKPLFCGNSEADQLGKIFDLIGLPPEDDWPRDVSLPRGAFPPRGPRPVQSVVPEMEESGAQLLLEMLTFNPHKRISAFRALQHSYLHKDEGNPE
T1 sequence (P24385 whole entry partner): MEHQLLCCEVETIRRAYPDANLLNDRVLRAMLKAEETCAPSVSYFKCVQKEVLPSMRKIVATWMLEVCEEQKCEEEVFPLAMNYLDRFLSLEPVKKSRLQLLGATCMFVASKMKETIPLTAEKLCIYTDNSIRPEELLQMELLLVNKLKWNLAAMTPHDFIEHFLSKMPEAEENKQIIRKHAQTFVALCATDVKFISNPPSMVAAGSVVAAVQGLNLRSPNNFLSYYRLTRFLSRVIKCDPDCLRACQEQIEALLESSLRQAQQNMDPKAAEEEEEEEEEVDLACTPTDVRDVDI
T1 sequence (Q16531 2-1140 limits assumed, further chain): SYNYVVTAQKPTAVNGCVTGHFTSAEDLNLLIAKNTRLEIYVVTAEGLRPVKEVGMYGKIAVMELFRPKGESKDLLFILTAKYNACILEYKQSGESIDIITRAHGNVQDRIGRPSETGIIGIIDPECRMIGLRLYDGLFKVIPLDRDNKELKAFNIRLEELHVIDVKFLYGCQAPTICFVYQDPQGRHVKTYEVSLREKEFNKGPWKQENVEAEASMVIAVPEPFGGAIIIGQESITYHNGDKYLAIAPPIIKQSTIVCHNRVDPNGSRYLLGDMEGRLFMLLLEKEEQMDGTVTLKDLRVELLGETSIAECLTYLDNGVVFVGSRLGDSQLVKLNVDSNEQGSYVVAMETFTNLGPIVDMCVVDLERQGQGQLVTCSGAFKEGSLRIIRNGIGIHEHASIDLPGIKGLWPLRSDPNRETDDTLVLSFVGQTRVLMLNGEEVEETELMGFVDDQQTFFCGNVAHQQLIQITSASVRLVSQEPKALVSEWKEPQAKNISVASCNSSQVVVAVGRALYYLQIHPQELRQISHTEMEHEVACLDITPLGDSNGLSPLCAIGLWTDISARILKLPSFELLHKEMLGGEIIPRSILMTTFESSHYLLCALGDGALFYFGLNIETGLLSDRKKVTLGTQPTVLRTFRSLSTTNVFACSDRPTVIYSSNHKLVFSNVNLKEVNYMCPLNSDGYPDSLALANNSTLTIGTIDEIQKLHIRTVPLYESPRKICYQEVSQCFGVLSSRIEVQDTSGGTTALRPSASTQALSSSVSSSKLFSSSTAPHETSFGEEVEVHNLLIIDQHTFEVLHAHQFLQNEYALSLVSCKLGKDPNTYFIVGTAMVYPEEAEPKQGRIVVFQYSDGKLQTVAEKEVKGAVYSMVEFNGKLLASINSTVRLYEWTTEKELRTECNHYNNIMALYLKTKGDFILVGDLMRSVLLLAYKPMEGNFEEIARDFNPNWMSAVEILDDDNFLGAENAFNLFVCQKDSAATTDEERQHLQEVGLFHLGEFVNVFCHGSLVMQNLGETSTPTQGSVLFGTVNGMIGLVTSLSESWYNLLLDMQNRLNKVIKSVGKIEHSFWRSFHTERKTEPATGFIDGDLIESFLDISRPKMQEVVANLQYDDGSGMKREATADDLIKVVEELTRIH
In short: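 CDK4 degradation was measured by immunoblotting. Cells were washed in cold PBS and lysed in RIPA buffer with inhibitors for 30 min at 4° C., then spun at 13,000 rpm to clear. After BCA protein determination, lysates were heated at 99° C. for 5 min in Laemmli buffer, resolved on SDS-PAGE, imaged on a ChemiDoc MP with ECL substrate, and band intensities quantified.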

SMILES	CyclinD1 Degradation (200 nM) (cyclin D1)	inhibition at 0.2 µM (CDK4; Calu-1, 16 h) [%]	inhibition at 0.2 µM (CDK4; Calu-1 cells, 200 nM, 16 hours) [%]	CyclinD1 Degradation (10 μM) (cyclin D1; 10 μM)	inhibition at 10 µM (CDK4; Calu-1 cells, 10 μM, 16 hours, read-out: CDK4 Degradation (10 μM)) [%]
CC(=O)c1c(C)c2cnc(Nc3ccc(N4CCN(C(=O)CCOCCOCCOCCC(=O)Nc5ccccc5C(=O)Nc5nc(C)c(C)s5)CC4)cn3)nc2n(C2CCCC2)c1=O [CPD-357, 2-(3-(2-(2-(3-(4-(6-((6-Acetyl-8-cyclopentyl-5-methyl-7-oxo-7,8-dihydropyrido[2,3-d]pyrimidin-2-yl)amino)pyridin-3-yl)piperazin-1-yl)-3-oxopropoxy)ethoxy)ethoxy)propanamido)-N-(4,5-dimethylthiazol-2-yl)benzamide]	A (protein percentage degradation >=80%)	50 to 80			
CC(=O)c1c(C)c2cnc(Nc3ccc(N4CCN(CC(=O)NCCOCCOCCOCCOCCOCCC(=O)Nc5ccccc5C(=O)Nc5nc(C)c(C)s5)CC4)cn3)nc2n(C2CCCC2)c1=O [CPD-175, 2-(1-(4-(6-((6-Acetyl-8-cyclopentyl-5-methyl-7-oxo-7,8-dihydropyrido[2,3-d]pyrimidin-2-yl)amino)pyridin-3-yl)piperazin-1-yl)-2-oxo-6,9,12,15,18-pentaoxa-3-azahenicosan-21-amido)-N-(4,5-dimethylthiazol-2-yl)benzamide]	A (protein percentage degradation >=80%)	> 80			
CC(=O)c1c(C)c2cnc(Nc3ccc(N4CCN(C(=O)CCOCCOCCOCCOCCNc5cccc(C(=O)Nc6nc(C)c(C)s6)c5C)CC4)cn3)nc2n(C2CCCC2)c1=O [CPD-123, 3-((15-(4-(6-((6-Acetyl-8-cyclopentyl-5-methyl-7-oxo-7,8-dihydropyrido[2,3-d]pyrimidin-2-yl)amino)pyridin-3-yl)piperazin-1-yl)-15-oxo-3,6,9,12-tetraoxapentadecyl)amino)-N-(4,5-dimethylthiazol-2-yl)-2-methylbenzamide]	A (protein percentage degradation >=80%)	50 to 80			
CC(=O)c1c(C)c2cnc(Nc3ccc(N4CCN(CC(=O)NCCOCCOCCOCCOCCOCCNc5ccc(C(=O)Nc6ncc(C(F)(F)F)s6)c(C)c5)CC4)cn3)nc2n(C2CCCC2)c1=O [CPD-003, 4-((1-(4-(6-((6-Acetyl-8-cyclopentyl-5-methyl-7-oxo-7,8-dihydropyrido[2,3-d]pyrimidin-2-yl)amino)pyridin-3-yl)piperazin-1-yl)-2-oxo-6,9,12,15,18-pentaoxa-3-azaicosan-20-yl)amino)-2-methyl-N-(5-(trifluoromethyl)thiazol-2-yl)benzamide]	D (protein percentage degradation <30%)		< 30		
COc1ccc(NC(=O)c2ccc(N(C)C)cc2NC(=O)CCOCCOCCNC(=O)CN2CCN(c3ccc(Nc4ncc5c(C)c(C(C)=O)c(=O)n(C6CCCC6)c5n4)nc3)CC2)nn1 [CPD-365, 2-(3-(2-(2-(2-(4-(6-((6-Acetyl-8-cyclopentyl-5-methyl-7-oxo-7,8-dihydropyrido[2,3-d]pyrimidin-2-yl)amino)pyridin-3-yl)piperazin-1-yl)acetamido)ethoxy)ethoxy)propanamido)-4-(dimethylamino)-N-(6-methoxypyridazin-3-yl)benzamide]	A (protein percentage degradation >=80%)		> 80		
CC(=O)c1c(C)c2cnc(Nc3ccc(N4CCN(C(=O)CCNc5cccc(C(=O)Nc6nc(C)c(C)s6)c5C)CC4)cn3)nc2n(C2CCCC2)c1=O [CPD-112, 3-((3-(4-(6-((6-Acetyl-8-cyclopentyl-5-methyl-7-oxo-7,8-dihydropyrido[2,3-d]pyrimidin-2-yl)amino)pyridin-3-yl)piperazin-1-yl)-3-oxopropyl)amino)-N-(4,5-dimethylthiazol-2-yl)-2-methylbenzamide]	D (protein percentage degradation <30%)	< 30			
CC(=O)c1c(C)c2cnc(Nc3ccc(N4CCN(CC(=O)NCCCCCCCCNc5ccc(C)c(C(=O)Nc6nc(C)c(C)s6)c5)CC4)cn3)nc2n(C2CCCC2)c1=O [CPD-095, 5-((8-(2-(4-(6-((6-Acetyl-8-cyclopentyl-5-methyl-7-oxo-7,8-dihydropyrido[2,3-d]pyrimidin-2-yl)amino)pyridin-3-yl)piperazin-1-yl)acetamido)octyl)amino)-N-(4,5-dimethylthiazol-2-yl)-2-methylbenzamide]	D (protein percentage degradation <30%)		< 30		
CC(=O)c1c(C)c2cnc(Nc3ccc(N4CCN(C(=O)CCCCC(=O)Nc5ccccc5C(=O)Nc5nc(C)c(C)s5)CC4)cn3)nc2n(C2CCCC2)c1=O [CPD-156, 2-(6-(4-(6-((6-Acetyl-8-cyclopentyl-5-methyl-7-oxo-7,8-dihydropyrido[2,3-d]pyrimidin-2-yl)amino)pyridin-3-yl)piperazin-1-yl)-6-oxohexanamido)-N-(4,5-dimethylthiazol-2-yl)benzamide]	D (protein percentage degradation <30%)	< 30			
CC(=O)c1c(C)c2cnc(Nc3ccc(N4CCN(CC(=O)NCCOCCOCCC(=O)Nc5ccccc5C(=O)Nc5nc(C(C)C)c(C)s5)CC4)cn3)nc2n(C2CCCC2)c1=O [CPD-070, 2-(3-(2-(2-(2-(4-(6-((6-Acetyl-8-cyclopentyl-5-methyl-7-oxo-7,8-dihydropyrido[2,3-d]pyrimidin-2-yl)amino)pyridin-3-yl)piperazin-1-yl)acetamido)ethoxy)ethoxy)propanamido)-N-(4-isopropyl-5-methylthiazol-2-yl)benzamide]	A (protein percentage degradation >=80%)		> 80		
CC(=O)c1c(C)c2cnc(Nc3ccc(N4CCN(CC(=O)NCCOCCOCCOCCOCCNC(=O)c5ccc(C(=O)Nc6ncc(C)s6)c(C)c5)CC4)cn3)nc2n(C2CCCC2)c1=O [CPD-012, N^4-(1-(4-(6-((6-Acetyl-8-cyclopentyl-5-methyl-7-oxo-7,8-dihydropyrido[2,3-d]pyrimidin-2-yl)amino)pyridin-3-yl)piperazin-1-yl)-2-oxo-6,9,12,15-tetraoxa-3-azaheptadecan-17-yl)-2-methyl-N^1-(5-methylthiazol-2-yl)terephthalamide]	D (protein percentage degradation <30%)		< 30		
Cc1nc(NC(=O)c2ccccc2NC(=O)CCCCCCCNC(=O)CN2CCN(c3ccc(Nc4ncc5cc(C(=O)N(C)C)n(C6CCCC6)c5n4)nc3)CC2)sc1C [CPD-292, 7-Cyclopentyl-2-((5-(4-(2-((8-((2-((4,5-dimethylthiazol-2-yl)carbamoyl)phenyl)amino)-8-oxooctyl)amino)-2-oxoethyl)piperazin-1-yl)pyridin-2-yl)amino)-N,N-dimethyl-7H-pyrrolo[2,3-d]pyrimidine-6-carboxamide]				B (protein percentage degradation < 80%, and >= 50%)	< 30
CC(=O)c1c(C)c2cnc(Nc3ccc(N4CCN(CC(=O)NCCOCCOCCOCCOCCOCCNc5ccc(C(=O)Nc6nc(-c7ccccc7)cs6)c(C)c5)CC4)cn3)nc2n(C2CCCC2)c1=O [CPD-007, 4-((1-(4-(6-((6-Acetyl-8-cyclopentyl-5-methyl-7-oxo-7,8-dihydropyrido[2,3-d]pyrimidin-2-yl)amino)pyridin-3-yl)piperazin-1-yl)-2-oxo-6,9,12,15,18-pentaoxa-3-azaicosan-20-yl)amino)-2-methyl-N-(4-phenylthiazol-2-yl)benzamide]	D (protein percentage degradation <30%)		< 30		
